Reference: publication PMC3826262 (MedChemComm, 2013)
Non-standard residues stand in square brackets, D forms with d. Residues, ends and D or L forms follow the SMILES beside them. *: point of attachment. Cbz = O=C(OCc1ccccc1)*; Dap = NC[C@H](N)C(=O)O

Experiments:
HOVPro = HOVPro (Norovirus Hu/Houston/TCH186/2002/US (Norovirus GII.4), UniProt A9YYE3); test: Inhibition of Houston virus protease; type: biochemical; details: HOVPro vs NVPro Ki
NVPro = NVPro (Norovirus, UniProt Q83883); test: Inhibition of recombinant NVPro; type: biochemical; details: for fold less active than compound 1: ratio of Ki vs compound 1; for Ki: Table 1, recombinant NVPro

Row | fold less active than compound 1 (NVPro; NVPro) | Ki (NVPro) | Compound | inhibitory activity against NVPro (NVPro; NVPro) | further results
1 |  | inactive | CCOC(=O)/C=C/[C@H](CCC(=O)N(C)C)NC(=O)[C@H](Cc1ccccc1)NC(=O)[C@H](CC(C)C)NC(=O)OCc1ccccc1 [compound 11] | essentially inactive | 
2 |  | inactive | CCOC(=O)/C=C/[C@H](CCC(N)=O)NC(=O)[C@H](Cc1ccccc1)NC(=O)[C@H](CC(C)C)NC(=O)OCc1ccccc1 [compound 12] | Neither 12 nor 13 exhibits inhibitory activity | 
3 |  | inactive | CCOC(=O)/C=C/[C@H](CNC(C)=O)NC(=O)[C@H](Cc1ccccc1)NC(=O)[C@H](CC(C)C)NC(=O)OCc1ccccc1 [compound 13] | Neither 12 nor 13 exhibits inhibitory activity | 
4 | 42 fold |  | CNC(=O)CC[C@@H](C=O)NC(=O)[C@H](Cc1ccccc1)NC(=O)[C@H](CC(C)C)NC(=O)OCc1ccccc1 [compound 14] (Cbz-Leu-Phe-Glu(NHMe)-aldehyde) |  | 

Second part, the compound before the results:

Row | Compound | fold less active than compound 1 (NVPro; NVPro) | Ki (NVPro) | inhibitory activity against NVPro (NVPro; NVPro) | further results
5 | CC(C)C[C@H](NC(=O)OCc1ccccc1)C(=O)N[C@@H](Cc1ccccc1)C(=O)N[C@H](C=O)CCC(=O)N(C)C [compound 1, Z-Leu-Phe-Gln(diMe)-CHO] (Cbz-Leu-Phe-Glu(NMe2)-aldehyde) |  |  |  | fold activity reduction against HOVPro as compared with NVPro (HOVPro): > 60 fold; fold more active than compound 8 (NVPro; NVPro, ratio of Ki): 380 fold; fold more active than compounds 5 and 2 (NVPro; NVPro, ratio of Ki): 3-5 fold
6 | CC(=O)NC[C@@H](C=O)NC(=O)[C@H](Cc1ccccc1)NC(=O)[C@H](CC(C)C)NC(=O)OCc1ccccc1 [compound 3] (Cbz-Leu-Phe-[Dap](Ac)-aldehyde) | ~ 12 fold |  |  | 
7 | CC(=O)N[C@@H](CC(C)C)C(=O)N[C@@H](Cc1ccccc1)C(=O)N[C@H](C=O)CCC(=O)N(C)C [compound 9] (Ac-Leu-Phe-Glu(NMe2)-aldehyde) | > 300 fold |  |  | 
8 | CC(=O)[C@H](CCC(=O)N(C)C)NC(=O)[C@H](Cc1ccccc1)NC(=O)[C@H](CC(C)C)NC(=O)OCc1ccccc1 [compound 10] | 1,200 fold |  |  | 
9 | CC(C)C[C@H](NC(=O)OCc1ccccc1)C(=O)N[C@@H](Cc1ccccc1)C(=O)N[C@H](C=O)CCC(=O)NC1CC1 [compound 15] |  |  |  | fold improved inhibition as compared to compound 14 (NVPro; NVPro, ratio of Ki): ~ 3 fold
